According to patent publication US12466809B2, “CDK2/5 degraders and uses thereof” (DANA-FARBER CANCER INSTITUTE, INC., priority 2019, dated 2025):
pIC50: −log10 of the molar value.

What was measured:
CDK5/p25 = CDK5/p25 (Homo sapiens (Human), UniProt Q00535); experiment: Invitrogen Z'-LYTE kinase assay CDK5/p25 (assay ID 318, Km app, 10-point titration); assay type: biochemical; conditions: CDK5/p25, Km app ATP
Source text: (§1) CDK2 and CDK5 IC50 data were attained through the use of Invitrogen™ commercial assays. The method for CDK2 (assay ID: 315, kinase|Z'-LYTE™|CDK2/Cyclin A|Km app) used a 10-point titration. The method for CDK5 (assay ID: 318, kinase|Z'-LYTE™|CDK5/p25|Km app) used a 10-point titration.

CDK2/Cyclin A = CDK2/Cyclin A (Homo sapiens (Human), UniProt P24941); experiment: Invitrogen Z'-LYTE kinase assay CDK2/Cyclin A (assay ID 315, Km app, 10-point titration); assay type: biochemical; conditions: Km app ATP
Source text: as §1

Sequence of CDK5/p25 (Q00535 whole entry): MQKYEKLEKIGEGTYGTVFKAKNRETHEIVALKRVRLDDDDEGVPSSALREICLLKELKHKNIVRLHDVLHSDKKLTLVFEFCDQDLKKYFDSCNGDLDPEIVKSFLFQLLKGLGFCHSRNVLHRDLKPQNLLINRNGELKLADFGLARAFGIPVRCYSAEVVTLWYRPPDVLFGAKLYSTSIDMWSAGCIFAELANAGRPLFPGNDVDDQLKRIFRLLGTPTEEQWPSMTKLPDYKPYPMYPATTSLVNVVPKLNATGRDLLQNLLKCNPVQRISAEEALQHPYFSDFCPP
Sequence of CDK5/p25 (Q15078 99-307 partner): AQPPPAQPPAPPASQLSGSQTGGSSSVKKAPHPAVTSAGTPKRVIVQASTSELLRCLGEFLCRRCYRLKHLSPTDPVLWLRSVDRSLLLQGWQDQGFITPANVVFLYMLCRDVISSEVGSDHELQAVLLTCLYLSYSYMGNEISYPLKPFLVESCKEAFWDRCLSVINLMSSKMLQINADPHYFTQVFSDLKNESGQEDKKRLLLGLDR

pIC50 (CDK5/p25)	pIC50 (CDK2/Cyclin A)	SMILES
8.42	8.29	NC(=O)c1c(F)cccc1Nc1nc(NC2CCN(S(=O)(=O)CCNC(=O)CCOCCNc3cccc4c3C(=O)N(C3CCC(=O)NC3=O)C4=O)CC2)ncc1Br (centres unmarked) [Compound 2, 2-((5-bromo-2-((1-((2-(3-(2-((2-(2,6-dioxopiperidin-3-yl)-1,3-dioxoisoindolin-4-yl)amino)ethoxy)propanamido)ethyl)sulfonyl)piperidin-4-yl)amino)pyrimidin-4-yl)amino)-6-fluorobenzamide]
8.32	8.31	NC(=O)c1c(F)cccc1Nc1nc(NC2CCN(S(=O)(=O)CCNC(=O)CCOCCOCCOc3cccc4c3C(=O)N(C3CCC(=O)NC3=O)C4=O)CC2)ncc1Br (centres unmarked) [Compound 3, 2-((5-bromo-2-((1-((2-(3-(2-(2-((2-(2,6-dioxopiperidin-3-yl)-1,3-dioxoisoindolin-4-yl)oxy)ethoxy)ethoxy)propanamido)ethyl)sulfonyl)piperidin-4-yl)amino)pyrimidin-4-yl)amino)-6-fluorobenzamide]
8.08	8.14	NC(=O)c1c(F)cccc1Nc1nc(NC2CCN(S(=O)(=O)CCNC(=O)CCOCCOCCOCCOCCOCCOCCOCCOCCNc3cccc4c3C(=O)N(C3CCC(=O)NC3=O)C4=O)CC2)ncc1Br (centres unmarked) [Compound 4, N-(2-((4-((5-bromo-4-((2-carbamoyl-3-fluorophenyl)amino)pyrimidin-2-yl)amino)piperidin-1-yl)sulfonyl)ethyl)-1-((2-(2,6-dioxopiperidin-3-yl)-1,3-dioxoisoindolin-4-yl)amino)-3,6,9,12,15,18,21,24-octaoxaheptacosan-27-amide]
7.93	7.77	NC(=O)c1c(F)cccc1Nc1nc(NC2CCN(S(=O)(=O)CCNC(=O)CCCCCCCOc3cccc4c3C(=O)N(C3CCC(=O)NC3=O)C4=O)CC2)ncc1Br (centres unmarked) [Compound 6, 2-((5-bromo-2-((1-((2-(8-((2-(2,6-dioxopiperidin-3-yl)-1,3-dioxoisoindolin-4-yl)oxy)octanamido)ethyl)sulfonyl)piperidin-4-yl)amino)pyrimidin-4-yl)amino)-6-fluorobenzamide]
7.86	7.69	NC(=O)c1c(F)cccc1Nc1nc(NC2CCN(S(=O)(=O)CCNC(=O)CCCCCOc3cccc4c3C(=O)N(C3CCC(=O)NC3=O)C4=O)CC2)ncc1Br (centres unmarked) [Compound 7, 2-((5-bromo-2-((1-((2-(6-((2-(2,6-dioxopiperidin-3-yl)-1,3-dioxoisoindolin-4-yl)oxy)hexanamido)ethyl)sulfonyl)piperidin-4-yl)amino)pyrimidin-4-yl)amino)-6-fluorobenzamide]
6.62	6.46	NC(=O)c1c(F)cccc1Nc1nc(N[C@@H]2CCCN(S(=O)(=O)CCNC(=O)CCCCCCCCOc3cccc4c3C(=O)N(C3CCC(=O)NC3=O)C4=O)C2)ncc1Br (stereo partly drawn) [Compound 8, 2-((5-bromo-2-(((3R)-1-((2-(9-((2-(2,6-dioxopiperidin-3-yl)-1,3-dioxoisoindolin-4-yl)oxy)nonanamido)ethyl)sulfonyl)piperidin-3-yl)amino)pyrimidin-4-yl)amino)-6-fluorobenzamide]
8.39	8.12	Cc1ncsc1-c1ccc([C@H](C)NC(=O)[C@@H]2C[C@@H](O)CN2C(=O)[C@@H](NC(=O)CCOCCOCCOCCC(=O)NCCS(=O)(=O)N2CCC(Nc3ncc(Br)c(Nc4cccc(F)c4C(N)=O)n3)CC2)C(C)(C)C)cc1 [Compound 9, (2S,4R)-1-((S)-19-((4-((5-bromo-4-((2-carbamoyl-3-fluorophenyl)amino)pyrimidin-2-yl)amino)piperidin-1-yl)sulfonyl)-2-(tert-butyl)-4,16-dioxo-7,10,13-trioxa-3,17-diazanonadecanoyl)-4-hydroxy-N—((S)-1-(4-(4-methylthiazol-5-yl)phenyl)ethyl)pyrrolidine-2-carboxamide]
8.37	8.04	Cc1ncsc1-c1ccc([C@H](C)NC(=O)[C@@H]2C[C@@H](O)CN2C(=O)[C@@H](NC(=O)CCCCC(=O)NCCS(=O)(=O)N2CCC(Nc3ncc(Br)c(Nc4cccc(F)c4C(N)=O)n3)CC2)C(C)(C)C)cc1 [Compound 10, N^1-(2-((4-((5-bromo-4-((2-carbamoyl-3-fluorophenyl)amino)pyrimidin-2-yl)amino)piperidin-1-yl)sulfonyl)ethyl)-N^6—((S)-1-((2S,4R)-4-hydroxy-2-(((S)-1-(4-(4-methylthiazol-5-yl)phenyl)ethyl)carbamoyl)pyrrolidin-1-yl)-3,3-dimethyl-1-oxobutan-2-yl)adipamide]
6.03	6.60	O=C(CCCCCCCCOc1cccc2c1C(=O)N(C1CCC(=O)NC1=O)C2=O)NCCS(=O)(=O)N1CCC(Nc2ncc(Br)c(Nc3cccc4c3OCO4)n2)CC1 (centres unmarked) [Compound 17, N-(2-((4-((4-(benzo[d][1,3]dioxol-4-ylamino)-5-bromopyrimidin-2-yl)amino)piperidin-1-yl)sulfonyl)ethyl)-9-((2-(2,6-dioxopiperidin-3-yl)-1,3-dioxoisoindolin-4-yl)oxy)nonanamide]
7.56	7.63	O=C(CCOCCOCCOCCOCCNc1cccc2c1C(=O)N(C1CCC(=O)NC1=O)C2=O)NCCS(=O)(=O)N1CCC(Nc2ncc(Br)c(N3CCCc4ccccc43)n2)CC1 (centres unmarked) [Compound 18, N-(2-((4-((5-bromo-4-(3,4-dihydroquinolin-1(2H)-yl)pyrimidin-2-yl)amino)piperidin-1-yl)sulfonyl)ethyl)-1-((2-(2,6-dioxopiperidin-3-yl)-1,3-dioxoisoindolin-4-yl)amino)-3,6,9,12-tetraoxapentadecan-15-amide]
7.15	6.94	NC(=O)c1c(F)cccc1Nc1nc(NC2CCN(S(=O)(=O)CCNC(=O)CCOCCOCCOCCOCCNc3cccc4c3C(=O)N(C3CCC(=O)NC3=O)C4=O)CC23CC3)ncc1Br (centres unmarked) [Compound 19, N-(2-((8-((5-bromo-4-((2-carbamoyl-3-fluorophenyl)amino)pyrimidin-2-yl)amino)-5-azaspiro[2.5]octan-5-yl)sulfonyl)ethyl)-1-((2-(2,6-dioxopiperidin-3-yl)-1,3-dioxoisoindolin-4-yl)amino)-3,6,9,12-tetraoxapentadecan-15-amide]
8.24	8.33	O=C(CCOCCOCCOCCOCCNc1cccc2c1C(=O)N(C1CCC(=O)NC1=O)C2=O)NCCS(=O)(=O)N1CCC(Nc2ncc(Br)c(Nc3cccc4c3C(=O)NC4)n2)CC1 (centres unmarked) [Compound 20, N-(2-((4-((5-bromo-4-((3-oxoisoindolin-4-yl)amino)pyrimidin-2-yl)amino)piperidin-1-yl)sulfonyl)ethyl)-1-((2-(2,6-dioxopiperidin-3-yl)-1,3-dioxoisoindolin-4-yl)amino)-3,6,9,12-tetraoxapentadecan-15-amide]
8.12	7.98	O=C(CCCCCCCCOc1cccc2c1C(=O)N(C1CCC(=O)NC1=O)C2=O)NCCS(=O)(=O)N1CCC(Nc2ncc(Br)c(Nc3cccc4c3C(=O)NC4)n2)CC1 (centres unmarked) [Compound 21, N-(2-((4-((5-bromo-4-((3-oxoisoindolin-4-yl)amino)pyrimidin-2-yl)amino)piperidin-1-yl)sulfonyl)ethyl)-9-((2-(2,6-dioxopiperidin-3-yl)-1,3-dioxoisoindolin-4-yl)oxy)nonanamide]
